The source of these data is ChEMBL document CHEMBL1201862, “PubChem BioAssay data set” (2004).

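96-well plates; 48 h exposure; 5 concentrations. Endpoints by linear interpolation between flanking doses. Not reached: highest tested concentration assigned. GI50 is the concentration that inhibits growth by half.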 The source made the active and inactive calls. No stated cut-off is given here; in the data, active = GI50 up to about 1.1 µM and inactive = higher.

Some test systems named below: A549; ACHN; COLO 205; EKVX; HCT-116; HCT-15; HOP-62; HOP-92; IGROV-1; K562; M14; MOLT-4; OVCAR-5; RXF 393; SK-OV-3; TK-10; UACC-257; MCF7; NCI/ADR-RES.
Assay in all cases: inhibition of tumour cell growth, NCI panel, 48 h

For the compound `O=C(CNC(=O)OCc1ccccc1)Oc1ccccc1`, the GI50 was > 100 µM (inactive) in the assay with A549; > 100 µM (inactive) in the assay with ACHN; > 100 µM (inactive) in the assay on COLO 205; > 100 µM (inactive) in the assay with EKVX; > 100 µM (inactive) with HCT-116; above 100 µM in the assay on HCT-15. Further, the GI50 in the assay with HOP-62, with HOP-92, in the assay on IGROV-1, in the assay with K562, in the assay on M14 and in the assay with MOLT-4 was > 100 µM (inactive) in each case. The GI50 in the assay on OVCAR-5, with RXF 393, in the assay on SK-OV-3, with TK-10 and with UACC-257 was > 100 µM (inactive) in each case.
For `NC(=O)/C=C/C(=O)O`, the GI50 with A549 is > 5000 µM (inactive); in the assay with ACHN, > 5000 µM (inactive); in the assay with COLO 205, > 5000 µM (inactive); in the assay on HCT-116, > 5000 µM (inactive); with HCT-15, above 5000 µM; in the assay on HOP-62 it was > 5000 µM (inactive). Besides, the GI50 in the assay on HOP-92, in the assay with IGROV-1, with K562, with M14, with MOLT-4 and in the assay with OVCAR-5 was > 5000 µM (inactive) throughout. Also, the GI50 with RXF 393, in the assay on SK-OV-3, with TK-10 and in the assay with UACC-257 was > 5000 µM (inactive) each time.
On to `O=[PH](O)c1cccnc1`, for which the GI50 in the assay on A549 was > 100 µM (inactive); in the assay with ACHN it was > 100 µM (inactive); with COLO 205, > 100 µM (inactive); in the assay on EKVX, > 100 µM (inactive); in the assay on HCT-116, > 100 µM (inactive); in the assay with HCT-15, above 100 µM. Moreover, the GI50 in the assay on HOP-62, with HOP-92, in the assay on IGROV-1, with K562, in the assay with M14 and in the assay on MOLT-4 was > 100 µM (inactive) in each case. Moreover, the GI50 with OVCAR-5, with RXF 393, with SK-OV-3, in the assay on TK-10 and with UACC-257 was > 100 µM (inactive) each time.
Consider `Cc1ccc(S(=O)(=O)n2c3c(c4ccccc42)CCN2C[C@H]([C@H](C)Br)CC[C@@H]32)cc1`, for which the GI50 in the assay with A549 was > 100 µM (inactive); with ACHN, > 100 µM (inactive); in the assay on COLO 205, > 100 µM (inactive); in the assay with EKVX it was > 100 µM (inactive); with HCT-15, above 100 µM; with HOP-62, > 100 µM (inactive). Besides, the GI50 in the assay on HOP-92 was > 100 µM (inactive); in the assay with IGROV-1, > 100 µM (inactive); in the assay on K562 it was 25.7 µM (inactive); in the assay on M14, > 100 µM (inactive); in the assay with MCF7, 91.8 µM (inactive); with MOLT-4 it was 67.1 µM (inactive). Also, the GI50 in the assay on NCI/ADR-RES, in the assay on OVCAR-5, in the assay with RXF 393, in the assay with SK-OV-3, in the assay with TK-10 and in the assay on UACC-257 was > 100 µM (inactive) in each case.
For the compound `Clc1ccc(SC(/C=C/NNC2=NN=C(c3ccccc3)C(c3ccccc3)N2)c2ccccc2)cc1` (configuration not stated), the GI50 in the assay with A549 is 29.2 µM (inactive); in the assay on ACHN it was 21 µM (inactive); in the assay with COLO 205 it was 20.8 µM (inactive); in the assay with EKVX it was 26.9 µM (inactive); with HCT-116 it was 16.1 µM (inactive); with HCT-15, 26.9 µM. Also, the GI50 is 33 µM (inactive) with HOP-62; 7.98 µM (inactive) in the assay on HOP-92; 49.3 µM (inactive) in the assay with IGROV-1; 18.2 µM (inactive) with K562; 18.5 µM (inactive) with M14; 11.2 µM (inactive) in the assay with MOLT-4. In addition, the GI50 was 33.8 µM (inactive) in the assay with OVCAR-5; 6.28 µM (inactive) with RXF 393; 68.1 µM (inactive) with SK-OV-3; 36.5 µM (inactive) with TK-10; 21.7 µM (inactive) in the assay on UACC-257.
On to `CN1CC[C@]2(C)c3c(O)cccc3CC3CCCC1C32C` (some centres not stated), for which the GI50 was > 100 µM (inactive) with A549; > 100 µM (inactive) with ACHN; > 100 µM (inactive) with COLO 205; > 100 µM (inactive) in the assay on EKVX; > 100 µM (inactive) with HCT-116; above 100 µM in the assay with HCT-15. For the same compound, the GI50 in the assay with HOP-62 is > 100 µM (inactive); in the assay on HOP-92 it was 89.7 µM (inactive); in the assay with IGROV-1, > 100 µM (inactive); in the assay on K562, 91.6 µM (inactive); with M14, > 100 µM (inactive); with MOLT-4, > 100 µM (inactive). Moreover, the GI50 in the assay on OVCAR-5, with RXF 393, in the assay with SK-OV-3, with TK-10 and in the assay on UACC-257 was > 100 µM (inactive) throughout.
For `COC(=O)C12OCC34C(CC5C(C)C6=CC(=O)OC6=CC5(C)C3C(O)C1O)OC(=O)C(OC(C)=O)C24` (configuration not stated), the GI50 in the assay on A549 is 19.8 µM (inactive); in the assay on ACHN, 15.7 µM (inactive); in the assay on COLO 205, 8.07 µM (inactive); in the assay on EKVX it was 16.7 µM (inactive); in the assay with HCT-116, 13.7 µM (inactive); with HCT-15, 15.3 µM. In addition, the GI50 in the assay on HOP-62 was 25.8 µM (inactive); with HOP-92, 16.9 µM (inactive); in the assay on IGROV-1 it was 27.8 µM (inactive); in the assay with K562, 14.7 µM (inactive); in the assay on M14 it was 14.3 µM (inactive); in the assay with MOLT-4, 14.8 µM (inactive). Also, the GI50 in the assay on OVCAR-5 is 23.1 µM (inactive); in the assay with RXF 393, 13.7 µM (inactive); with SK-OV-3 it was 29 µM (inactive); in the assay on TK-10, 17.4 µM (inactive); in the assay with UACC-257, 14.1 µM (inactive).
Regarding `CC[N+](C)(C)c1ccc(C(=C2C=CC(=[N+](C)C)C=C2)c2ccc(N(C)C)cc2)cc1`, the GI50 in the assay with A549 is 4.45 µM (inactive); in the assay with ACHN, 10.8 µM (inactive); in the assay with COLO 205, 5.31 µM (inactive); with EKVX it was 4.97 µM (inactive); with HCT-116 it was 4.2 µM (inactive); in the assay on HCT-15, 22.2 µM. In addition, the GI50 in the assay with HOP-62 was 8.34 µM (inactive); in the assay with HOP-92, 19.5 µM (inactive); in the assay with IGROV-1, 12 µM (inactive); with K562, 3.12 µM (inactive); in the assay on M14, 11 µM (inactive); with MOLT-4, 12.4 µM (inactive). Besides, the GI50 with OVCAR-5 is 52 µM (inactive); in the assay with RXF 393, 37.3 µM (inactive); in the assay on SK-OV-3 it was 19.4 µM (inactive); with TK-10, 28 µM (inactive); in the assay on UACC-257 it was 13.2 µM (inactive).
As for `Cc1nc2ccccc2c(=O)n1/N=C(\N=N\c1ccccc1)c1ccccc1Cl`, the GI50 in the assay on A549 is 52.5 µM (inactive); with ACHN it was 33.3 µM (inactive); in the assay with COLO 205 it was > 100 µM (inactive); with EKVX, 22.4 µM (inactive); with HCT-116 it was > 10 µM (inactive); in the assay with HCT-15, 48.1 µM. Also, the GI50 with HOP-62 was 32.1 µM (inactive); in the assay with HOP-92, 25 µM (inactive); with IGROV-1 it was 39.9 µM (inactive); in the assay on K562 it was 30.6 µM (inactive); in the assay with M14, > 86.7 µM (inactive); in the assay with MOLT-4 it was 14.8 µM (inactive). Also, the GI50 with OVCAR-5 was > 100 µM (inactive); in the assay on RXF 393 it was 21.6 µM (inactive); with SK-OV-3 it was 11.2 µM (inactive); with TK-10 it was 38.9 µM (inactive); in the assay with UACC-257, 75 µM (inactive).
In the case of `CCSc1[nH]c(NC(=S)NC(=O)c2ccccc2Cl)c(C(N)=O)c1C(N)=O`, the GI50 is > 10 µM (inactive) in the assay with A549; > 10 µM (inactive) with COLO 205; > 10 µM (inactive) with EKVX; above 10 µM with HCT-15; > 10 µM (inactive) with HOP-62; > 10 µM (inactive) with HOP-92. Also, the GI50 in the assay with IGROV-1 is > 10 µM (inactive); with K562, > 10 µM (inactive); with M14, > 10 µM (inactive); in the assay with MCF7, > 10 µM (inactive); in the assay with MOLT-4, > 10 µM (inactive); in the assay with RXF 393, 4.2 µM (inactive). Further, the GI50 in the assay on SK-OV-3, in the assay on TK-10 and in the assay on UACC-257 was > 10 µM (inactive) throughout.
In the case of `NC1=NN(c2ccccc2)C(=O)C1C(=O)C(=O)NC1C2CC3CC(C2)CC1C3` (configuration not stated), the GI50 in the assay on A549 was > 100 µM (inactive); in the assay with ACHN, > 100 µM (inactive); in the assay with COLO 205 it was > 100 µM (inactive); in the assay on EKVX it was > 100 µM (inactive); with HCT-116, > 100 µM (inactive); in the assay on HCT-15 it was above 100 µM. Also, the GI50 in the assay with HOP-62, with HOP-92, in the assay on IGROV-1, in the assay on K562, with M14 and in the assay on MOLT-4 was > 100 µM (inactive) throughout. In addition, the GI50 in the assay on OVCAR-5 was > 100 µM (inactive); with RXF 393 it was > 100 µM (inactive); with SK-OV-3, 24.9 µM (inactive); with TK-10, > 100 µM (inactive); with UACC-257, > 100 µM (inactive).
`COc1cc(-c2cc(CCC(=O)Nc3ccccc3[N+](=O)[O-])n(-c3ccc([N+](=O)[O-])cc3[N+](=O)[O-])n2)ccc1O`: the GI50 with A549 is > 10 µM (inactive); in the assay with ACHN, 70.6 µM (inactive); in the assay on COLO 205, > 10 µM (inactive); with EKVX it was > 10 µM (inactive); with HCT-116, > 10 µM (inactive); in the assay on HCT-15, 40.7 µM. Further, the GI50 is > 10 µM (inactive) with HOP-62; > 10 µM (inactive) in the assay with HOP-92; > 10 µM (inactive) with IGROV-1; 82.6 µM (inactive) with K562; > 10 µM (inactive) in the assay with M14; > 10 µM (inactive) in the assay on MOLT-4. The GI50 with OVCAR-5, in the assay with RXF 393, with SK-OV-3, with TK-10 and in the assay with UACC-257 was > 10 µM (inactive) in each case.
